Test results reported in patent publication US20250144049A1, “METHODS, COMPOSITIONS, AND USES RELATED TO THE TREATMENT AND PREVENTION OF LEIGH SYNDROME” (Stealth BioTherapeutics Inc., priority 2023, published 2025).

Experiments:
[1] = test system: reverse electron transfer (RET) from Complex II to Complex I in isolated murine brain mitochondria; test: Reverse electron transfer (RET) assay, H2O2 (ROS) production; assay type: biochemical, mouse
Experimental: For mitochondria isolation, brains were dissected at a local vivarium (Explora, MA, USA) from C57BL/6 mice that were supplied by The Jackson Laboratory (Maine, USA). Brains were collected on ice in cold mitochondria isolation buffer (225 mM mannitol, 75 mM sucrose, 5 mM HEPES, 1 mM EGTA, pH 7.4). In a glass petri dish, brains were mixed with a few drops of buffer and cut into small pieces resembling a mash using scissors. Mitochondrial isolation buffer was added at 1:10-1:20 (w/v) and tissue mash was transferred to a glass Dounce tissue homogenizer and further homogenized with 10-15 strokes. Mash was centrifuged at 1,000×g for 10 min to pellet and remove cellular debris, etc. Supernatant was transferred into 2.0 mL tubes and centrifuged at 10,000×g. The mitochondria pellet was resuspended in the desired amount of miR05 buffer (Oroboros, Innsbruck, Austria) and added directly to the Oroboros oxygraph-2K (Oroboros, Innsbruck, Austria) for an experiment or maintained on ice for up to 4 hours.
All high-resolution respirometry experiments were conducted using the Oroboros O2k-Fluorespirometer (Oroboros, Innsbruck, Austria). The Oroboros O2k-Fluorespirometer was calibrated daily using the air calibration protocol on DatLab 7.4 (Oroboros, Innsbruck, Austria). Prior to each experiment requiring the fluorescence module, the AmpR calibration protocol from DatLab 7.4 was used to calibrate the fluorescence signal. Initial data analysis, including setting of marks, was performed using DatLab 7.4.
Reverse electron transfer (RET) was measured using HRR with the Oroboros O2k and DatLab 7.4. To configure the Amp channel, the light or “Fluo intensity” was set at 1000 and the amplification of signal or “Gain for Fluo sensor” at 500 and illumination in the chamber was turned “off”. To calibrate the Fluo sensors, the Instrument protocol “AmR calibration” was used. […]
Statistical analysis was performed using GraphPad Prism 9. […] RET Assay data were analyzed by 2-way ANOVA using a p-value of 0.05. […]

[2] = Pharmacokinetics of Compound 3 and Compound 4 after five daily subcutaneous doses, plasma, heart, brain; assay type: in vivo, C57BL/6 mice; conditions: for tolerability: dose levels up to 60 mg/kg, SC injection, 5 daily doses
Experimental: • Animals: Male/C57Bl/6 mice/-18-25 grams were received from an approved vendor. • Fasting was not required for this study. • Body weights were recorded prior to dose administration. The volume of each dose delivered (mL/kg) was based on each individual animal's body weight. • This was a multiple dose terminal study dosed once per day over 5 days. Mice were taken down following their 5th and final dose. • Doses were administered in accordance with test facility standard operating procedures. […] Any abnormalities were recorded. • Pre-formulated Compound 3 and Compound 4 were provided by Study sponsor ready to be dosed for each day in accordance with the Study Design set forth in Table 1, below.
b) Sample collection—Post Dosing: • Terminal blood samples were collected via cardiac puncture following inhalation of anesthesia in accordance with test facility standard operating procedures. • Blood samples were collected into tubes with appropriate anticoagulant. The tubes were stored on wet ice until processed to plasma by centrifugation (3500 rpm at 5° C. for 10 minutes) within 20 minutes of collection. Sample aliquots of 100 μL were transferred into individual uniquely labeled matrix tubes and stored at nominal −80° C. until transferred to analytical chemistry for analysis by LC/MS/MS. • Immediately following each terminal blood collection for all groups, animals were sacrificed and perfused with cold PBS. The following tissues were collected: heart and brain in accordance with Table 2. • Plasma and tissue samples were processed for analysis by LC/MS/MS to determine the amounts/concentrations reported in the FIGS. 18-21.

[3] = test system: Leigh fibroblasts (GM03672); test: Mitochondrial membrane potential (TMRM flow cytometry) in RSL3-treated Leigh fibroblasts; assay type: cell-based, human; conditions: 1 μM RSL3 with 1 μM compound, 4 hours
Experimental: Leigh fibroblasts (GM03672) were seeded in a 24-well, tissue culture-treated plate in complete MEM (MEM+15% FBS+1% penicillin/streptomycin) at a density of 1×10^5 cells per 500 μL and incubated overnight at 37° C. at 5% CO2. Cells were treated for 4 hours at 37° C. with either 1 μM RSL3, 1 μM RSL3 with 1 μM Compound 3 or media for untreated cells. Following the incubation, supernatant was removed and cells were treated with 0.25% trypsin for 5 min at 37° C. Trypsin was neutralized with an equal part MEM. Cells were dislodged with gentle pipetting and pelleted at 300×g for 5 minutes. Pellets were resuspended in 500 μL Fluobrite DMEM and cells were transferred to a 96-well, v-bottom plate. Cells were stained with 20 nM MitoTracker Green and 100 nM tetramethylrhodamine methyl ester (TMRM) Samples were incubated for 25 minutes at 37° C. Each well was mixed immediately prior to analysis to resuspend settled cells. Fluorescence intensity was measured on the BD Accuri C6 Plus Flow Cytometer. A minimum of 10,000 events per sample was collected. Data analysis was performed using FloJo vs. 10. Gating was performed by establishing an initial forward scatter vs. side scatter gate. […] Median fluorescence intensity (MFI) of TMRM fluorescence was determined. Using GraphPad Prism 10, statistical significance between groups was determined by One-way ANOVA. […]

[4] = 2 μM compound prior to addition of succinate (10 mM)

With `CC1=C(C)C(=O)C(CC[C@@](C)(O)COCCC[Si](C)(C)C)=C(C)C1=O` [Compound 3] as the compound, how does the H2O2 production [1, 4] read?
The H2O2 production was “statistically significant reduction”.

And the “plasma exposure versus dose” value ([2]; mouse, 20 mg/kg and 60 mg/kg SC)?
The value was “roughly proportional to dose”.

And the “heart exposure based on AUC, Compound 3 versus Compound 4” value ([2]; mouse, SC)?
The value was “slightly higher”.

And the “exposure (Cmax and AUC) heart versus brain” value ([2]; mouse, SC, after 5th dose)?
Its value is “higher in heart than in brain”.

And the tolerability ([2]; mouse)?
The tolerability was “well tolerated”.

What about the “concentration in heart tissue” value ([2]; mouse, up to 2 hours post administration after 5 days, Compound 3 20 and 60 mg/kg, Compound 4 60 mg/kg SC, FIG. 18) of the same compound?
Its value is “up to microgram quantities of drug per gram of heart tissue”.

What about the “concentration in brain tissue” value ([2]; mouse, up to 2 hours post administration after 5 days, Compound 3 20 and 60 mg/kg, Compound 4 60 mg/kg SC, FIG. 19) of the same compound?
The value was “up to microgram quantities of drug per gram of brain tissue”.

What about the “protection from loss of mitochondrial membrane potential (TMRM MFI)” value [3] of the same compound?
Its value is “protective”.

For `CC1=C(C)C(=O)C(CC[C@](C)(O)CCCCCCCCC(F)(F)F)=C(C)C1=O` [Compound 4], which H2O2 production ([1]; 1 μM compound prior to addition of succinate (10 mM)) is on record?
The H2O2 production was “statistically significant reduction”.

What about the H2O2 production [1, 4] of the same compound?
The H2O2 production was “statistically significant reduction”.

What about the “brain exposure based on AUC, Compound 4 versus Compound 3” value ([2]; male, C57BL/6, mouse, in vivo, sc) of the same compound?
Its value is “somewhat higher than Compound 3”.

What about the tolerability ([2]; mouse) of the same compound?
The tolerability was “well tolerated”.

And the “Tmax, Compound 4 versus Compound 3” value ([2]; mouse, in vivo, sc)?
Its value is “typically later”.

And the “exposure (Cmax and AUC) heart versus brain” value ([2]; mouse, in vivo, sc)?
The value was “no difference”.

And the “half-life, Compound 4 versus Compound 3” value ([2]; mouse, in vivo, sc)?
The value was “tended to be longer”.

And the “protection from loss of mitochondrial membrane potential (TMRM MFI)” value [3]?
Its value is “protective”.
